Results taken from patent publication US10301286B2, “Piperazine derivative” (Astellas Pharma Inc., priority 2015, dated 2019).
Where a name gives a salt, the structure may show the parent alone.

Tested on: Male SD rats
Experiment: Rat erection-inducing action
Format: in vivo
Conditions: 10 mg/kg intravenously, erections up to one hour after administration, vs vehicle, P<0.05
Protocol: Male SD rats (Charles River Laboratories Japan, Inc.) were used. A test compound (10 mg/kg) or the vehicle (20% dimethyl acetamide, 10% Cremophor (registered trademark), 70% physiological saline) was administered intravenously through the tail vein. After administration, the rats were transferred to transparent observation cages made of plastic to measure the erection times of up to one hour after administration. The measurements were carried out for five groups (3 to 7 animals per group): vehicle groups, Example compound groups (Ex 87, 88, and 89), and THIQ group, which had been known as an MC4 receptor agonist (J. Med. Chem., 45, 4589-4593 (2002)), as a positive control. For a statistical significance test, Dunnett's multiple comparison test was used for the comparison with vehicle control group, and it was determined whether there was an erection-inducing effect with a statistically significant difference (P<0.05).

SMILES | erection-inducing effect
Cc1ccc(C[C@@H](C(=O)O)N2CCN(C(=O)[C@@H]3CN(C4CCOCC4)C[C@H]3c3ccc(Cl)cc3F)[C@@H](C)C2)c(F)c1 [Example 87, (2S)-2-[(3S)-4-{[(3S,4R)-4-(4-chloro-2-fluorophenyl)-1-(tetrahydro-2H-pyran-4-yl)pyrrolidin-3-yl]carbonyl}-3-methylpiperazin-1-yl]-3-(2-fluoro-4-methylphenyl)propanoic acid dihydrochloride] | did not exhibit an erection-inducing effect
Cc1cc(C)c(C[C@@H](C(=O)O)N2CCN(C(=O)[C@@H]3CN(C4CCOCC4)C[C@H]3c3ccc(Cl)cc3F)[C@@H](C)C2)c(F)c1 [Example 88] | did not exhibit an erection-inducing effect
Cc1cc(C)c(C[C@@H](C(=O)O)N2CCN(C(=O)[C@@H]3CN(C(C)(C)C)C[C@H]3c3ccc(Cl)cc3F)[C@@H](C)C2)c(C)c1 [Example 89] | did not exhibit an erection-inducing effect
